# Results reported in ChEMBL document CHEMBL5385959, “Trifluoroacetic acid-mediated synthesis of xanthene constructs and their extensive anti-tuberculosis evaluation” (RSC Med Chem, 2024).
# Active and inactive are the calls of the source. The rule behind the calls is not given here.
# Legend:
# [1] = test system: Mycobacterium tuberculosis; experiment: Antibacterial activity against Mycobacterium tuberculosis H37Ra assessed as reduction in bacterial growth incubated for 14 days by CLSI protocol based method; format: functional; conditions: 336 h, time 14 day
# [2] = test system: Mycobacterium tuberculosis; experiment: Antibacterial activity against Mycobacterium tuberculosis H37Rv assessed as reduction in bacterial growth incubated for 14 days by CLSI protocol based method; format: functional; conditions: 336 h, time 14 day
# [3] = test system: Pseudomonas aeruginosa; experiment: Antibacterial activity against Pseudomonas aeruginosa assessed as reduction in bacterial growth incubated for 24 hrs by broth dilution method; format: functional
# [4] = test system: Escherichia coli; experiment: Antibacterial activity against Escherichia coli assessed as reduction in bacterial growth incubated for 24 hrs by broth dilution method; format: functional
# [5] = test system: Bacillus subtilis; experiment: Antibacterial activity against Bacillus subtilis assessed as reduction in bacterial growth incubated for 24 hrs by broth dilution method; format: functional
# [6] = test system: Mycobacterium tuberculosis; experiment: Antibacterial activity against Mycobacterium tuberculosis H37Rv assessed as reduction in bacterial growth by broth microdilution method; format: functional
# [7] = test system: Mycobacterium tuberculosis; experiment: Antibacterial activity against GFP-tagged Mycobacterium tuberculosis H37Rv assessed as reduction in GFP expression at half times MIC incubated for 7 days by confocal microscopic analysis; format: functional, organism-based; conditions: time 7.0 day
# [8] = test system: Mycobacterium tuberculosis; experiment: Bactericidal activity Mycobacterium tuberculosis assessed as reduction in bacterial growth incubated for 28 days by broth microdilution method; format: functional; conditions: 672 h, time 28 day
# [9] = test system: Mycobacterium tuberculosis; experiment: Synergistic antibacterial activity against Mycobacterium tuberculosis H37Rv assessed as isoniazid MIC by broth microdilution method; format: functional
# [10] = test system: Mycobacterium tuberculosis; experiment: Synergistic antibacterial activity against Mycobacterium tuberculosis H37Rv assessed as ethambutol MIC by broth microdilution method; format: functional
# [11] = test system: Mycobacterium tuberculosis; experiment: Synergistic antibacterial activity against Mycobacterium tuberculosis H37Rv assessed as rifampicin MIC by broth microdilution method; format: functional
# [12] = test system: Mycobacterium tuberculosis; experiment: Synergistic antibacterial activity against Mycobacterium tuberculosis H37Rv assessed as reduction in microbial growth in presence of rifampicin by broth microdilution method; format: functional
# [13] = test system: Mycobacterium tuberculosis; experiment: Synergistic antibacterial activity against Mycobacterium tuberculosis H37Rv assessed as reduction in microbial growth in presence of isoniazid by broth microdilution method; format: functional
# [14] = test system: Mycobacterium tuberculosis; experiment: Synergistic antibacterial activity against Mycobacterium tuberculosis H37Rv assessed as reduction in microbial growth in presence of ethambutol by broth microdilution method; format: functional
# [15] = test system: Mycobacterium tuberculosis; experiment: Bactericidal activity Mycobacterium tuberculosis H37Rv assessed as reduction in bacterial growth incubated for 2 days by time kill assay; format: functional; conditions: 48 h, time 2 day
# [16] = test system: Mycobacterium tuberculosis; experiment: Bactericidal activity Mycobacterium tuberculosis H37Rv assessed as log reduction in CFU incubated for 2 days by time kill assay; format: functional; conditions: time 2 day
# [17] = test system: Mycobacterium tuberculosis; experiment: Bactericidal activity Mycobacterium tuberculosis H37Rv by time kill assay; format: functional, organism-based; conditions: time 16.0 day
# [18] = test system: Mycobacterium tuberculosis; experiment: Bactericidal activity Mycobacterium tuberculosis H37Rv assessed as log reduction in CFU at 16 times MIC incubated for 8 days by time kill assay; format: functional; conditions: time 8 day
# [19] = test system: Mycobacterium tuberculosis; experiment: Bactericidal activity Mycobacterium tuberculosis H37Rv assessed as log reduction in CFU at 16 times MIC incubated for 2 to 6 days by time kill assay; format: functional; conditions: time 2-6 day
# [20] = test system: HEK293; experiment: Cytotoxicity against HEK293 cells assessed as reduction in cell viability at 100 uM incubated for 48 hrs by MTT assay; format: toxicity, cell-based; conditions: human, hek293, 48 h
# [21] = Cytotoxicity against mouse RAW 264 cells assessed as reduction in cell viability at 150 uM incubated for 48 hrs by MTT assay; format: functional
# [22] = test system: A549; experiment: Cytotoxicity against human A549 cells assessed as reduction in cell viability at 200 uM incubated for 48 hrs by MTT assay; format: functional
SMILES,MIC [1],MIC [2],MIC [3],MIC [4],MIC [5],further results
O=C1CCCC2=C1C(c1ccccc1)C1=C(CCCC1=O)O2,64 µg/mL,64 µg/mL,> 128 µg/mL,> 128 µg/mL,> 128 µg/mL,–
Cc1cccc(C2C3=C(CCCC3=O)OC3=C2C(=O)CCC3)c1,64 µg/mL,64 µg/mL,> 128 µg/mL,> 128 µg/mL,> 128 µg/mL,–
C[C@H]1COc2c(N3CCN(C)CC3)c(F)cc3c(=O)c(C(=O)O)cn1c23 [LEVOFLOXACIN ANHYDROUS],0.039 µg/mL,2.5 µg/mL,–,–,–,–
O=C1CCCC2=C1C(c1ccc([N+](=O)[O-])cc1[N+](=O)[O-])C1=C(CCCC1=O)O2,64 µg/mL,64 µg/mL,> 128 µg/mL,> 128 µg/mL,> 128 µg/mL,–
NNC(=O)c1ccncc1 [ISONIAZID],0.019 µg/mL,0.625 µg/mL,–,–,–,MIC [6]: 8 µg/mL; Activity [7]: Active
CC1(C)CC(=O)C2=C(C1)OC1=C(C(=O)CC(C)(C)C1)C2c1ccc(C#N)cc1,64 µg/mL,64 µg/mL,> 128 µg/mL,> 128 µg/mL,> 128 µg/mL,–
CC[C@@H](CO)NCCN[C@@H](CC)CO [ETHAMBUTOL],0.019 µg/mL,1.25 µg/mL,–,–,–,MIC [6]: 8 µg/mL; Activity [7]: Active
O=C1CCCC2=C1C(c1cccc([N+](=O)[O-])c1)C1=C(CCCC1=O)O2,64 µg/mL,64 µg/mL,> 128 µg/mL,> 128 µg/mL,> 128 µg/mL,–
CC1(C)CC(=O)C2=C(C1)OC1=C(C(=O)CC(C)(C)C1)C2c1cccc(Br)c1,64 µg/mL,64 µg/mL,> 128 µg/mL,> 128 µg/mL,> 128 µg/mL,–
O=C1CCCC2=C1C(c1cccc(Cl)c1)C1=C(CCCC1=O)O2,64 µg/mL,64 µg/mL,> 128 µg/mL,> 128 µg/mL,> 128 µg/mL,–
CC1(C)CC(=O)C2=C(C1)OC(N)=C(C#N)C2c1cccc(O)c1 (configuration not stated),–,> 64 µg/mL,–,–,–,–
O=C1CCCC2=C1C(c1cccc(O)c1)C1=C(CCCC1=O)O2,64 µg/mL,64 µg/mL,> 128 µg/mL,> 128 µg/mL,> 128 µg/mL,–
CC1(C)CC(=O)C2=C(C1)OC1=C(C(=O)CC(C)(C)C1)C2c1cccc(O)c1,64 µg/mL,64 µg/mL,> 128 µg/mL,> 128 µg/mL,> 128 µg/mL,–
COc1ccc(OC)c(C2C3=C(CCCC3=O)OC3=C2C(=O)CCC3)c1,64 µg/mL,64 µg/mL,> 128 µg/mL,> 128 µg/mL,> 128 µg/mL,–
O=C1CCCC2=C1C(c1cc(O)ccc1O)C1=C(CCCC1=O)O2,64 µg/mL,64 µg/mL,> 128 µg/mL,> 128 µg/mL,> 128 µg/mL,–
O=C1CCCC2=C1C(c1ccc([N+](=O)[O-])cc1)C1=C(CCCC1=O)O2,64 µg/mL,64 µg/mL,> 128 µg/mL,> 128 µg/mL,> 128 µg/mL,–

SMILES,MIC [1],MIC [2],MIC [3],MIC [4],MIC [5],further results
COc1ccccc1C1C2=C(CCCC2=O)OC2=C1C(=O)CCC2,64 µg/mL,64 µg/mL,> 128 µg/mL,> 128 µg/mL,> 128 µg/mL,–
COc1cc(C2C3=C(CCCC3=O)OC3=C2C(=O)CCC3)ccc1O,64 µg/mL,64 µg/mL,> 128 µg/mL,> 128 µg/mL,> 128 µg/mL,–
CC1(C)CC(=O)C2=C(C1)OC1=C(C(=O)CC(C)(C)C1)C2c1cccc([N+](=O)[O-])c1,64 µg/mL,64 µg/mL,> 128 µg/mL,> 128 µg/mL,> 128 µg/mL,–
COc1cccc(C2C3=C(CCCC3=O)OC3=C2C(=O)CCC3)c1,8 µg/mL,8 µg/mL,> 128 µg/mL,> 128 µg/mL,> 128 µg/mL,MBC [8]: 8 µg/mL; MIC [6]: 8 µg/mL; MIC [9]: 0.078 µg/mL; MIC [10]: 0.312 µg/mL; MIC [11]: 0.009 µg/mL; MIC [12]: 0.5 µg/mL; MIC [13]: 0.25 µg/mL; MIC [14]: 0.25 µg/mL; MIC [15]: 8 µg/mL; Activity [16]: >2 log10CFU; Activity [17]: Dose-Dependent Effect; Activity [18]: 5 log10CFU; Activity [19]: 2 log10CFU; Activity [7]: Active; Activity [20]: > 75%; Activity [21]: >75%; Activity [22]: >75%
COc1cccc(C2C3=C(CC(C)(C)CC3=O)OC3=C2C(=O)CC(C)(C)C3)c1,64 µg/mL,64 µg/mL,> 128 µg/mL,> 128 µg/mL,> 128 µg/mL,–
N#CC1=C(N)Oc2c(c(=O)oc3ccccc23)C1c1ccc(O)cc1 (configuration not stated),–,> 64 µg/mL,–,–,–,–
O=C1CCCC2=C1C(c1cccc(Br)c1)C1=C(CCCC1=O)O2,64 µg/mL,64 µg/mL,> 128 µg/mL,> 128 µg/mL,> 128 µg/mL,–
O=C1CCCC2=C1C(c1cccc(F)c1)C1=C(CCCC1=O)O2,64 µg/mL,64 µg/mL,> 128 µg/mL,> 128 µg/mL,> 128 µg/mL,–
CO[C@H]1/C=C/O[C@@]2(C)Oc3c(C)c(O)c4c(O)c(c(/C=N/N5CCN(C)CC5)c(O)c4c3C2=O)NC(=O)/C(C)=C\C=C\[C@H](C)[C@H](O)[C@@H](C)[C@@H](O)[C@@H](C)[C@H](OC(C)=O)[C@@H]1C [RIFAMPIN],–,–,–,–,–,MIC [6]: 8 µg/mL
O=C1CCCC2=C1C(c1ccc(Br)cc1)C1=C(CCCC1=O)O2,64 µg/mL,64 µg/mL,> 128 µg/mL,> 128 µg/mL,> 128 µg/mL,–
COc1ccc(C2C3=C(CCCC3=O)OC3=C2C(=O)CCC3)cc1O,64 µg/mL,64 µg/mL,> 128 µg/mL,> 128 µg/mL,> 128 µg/mL,–
CC1(C)CC(=O)C2=C(C1)OC1=C(C(=O)CC(C)(C)C1)C2c1cccc(Cl)c1,64 µg/mL,64 µg/mL,> 128 µg/mL,> 128 µg/mL,> 128 µg/mL,–
CC1(C)CC(=O)C2=C(C1)OC(N)=C(C#N)C2c1ccc(O)cc1 (configuration not stated),–,> 64 µg/mL,–,–,–,–
CC1(C)CC(=O)C2=C(C1)OC1=C(C(=O)CC(C)(C)C1)C2c1ccc(O)cc1,64 µg/mL,64 µg/mL,> 128 µg/mL,> 128 µg/mL,> 128 µg/mL,–
N#CC1=C(N)OC2=C(C(=O)CCC2)C1c1ccccc1 (configuration not stated),–,> 64 µg/mL,–,–,–,–
COc1ccc(C2C3=C(CCCC3=O)OC3=C2C(=O)CCC3)cc1,16 µg/mL,16 µg/mL,> 128 µg/mL,> 128 µg/mL,> 128 µg/mL,–
